This note sets out measurements from ChEMBL document CHEMBL4393715, “Design, synthesis and biological evaluation of the thioether-containing lenalidomide analogs with anti-proliferative activities” (Eur J Med Chem, 2019).

Series [1] can be described thus: Toxicity in CB-17 SCID mouse xenografted with human RPMI8226 cells assessed as body weight at 60 mg/kg/day, po and measured after day 18 (reference value: 20.1 to 20.4 g). The class given is organism-based. The note with it: in vivo. A general note: A xenograft is tissue or cells of one species grown in another, often human tumour cells in immunodeficient mice.
Series [2] in a line: Half-life in BALB/c mouse at 5 mg/kg, iv and measured up to 24 hrs by LC-MS/MS analysis. The class given is ADME, organism-based. The note with it: in vivo.
Series [3] has as its system PBMC. As to the kind of experiment: Cytotoxicity against human PBMC cells by CellTiter96 Aqueous non-radioactive cell proliferation assay. The class given is cell-based.
Series [4] in a line: Tmax in BALB/c mouse at 20 mg/kg, po and measured up to 24 hrs by LC-MS/MS analysis. The class given is ADME, organism-based. The note with it: in vivo.
A short description of series [5]: Toxicity in CB-17 SCID mouse xenografted with human RPMI8226 cells assessed as mortality at 60 mg/kg/day, po and measured after day 18. The class given is organism-based. The settings on record: in vivo.
A short description of series [6]: Cmax in BALB/c mouse at 20 mg/kg, po and measured up to 24 hrs by LC-MS/MS analysis. The class given is ADME, organism-based. Further details: dose 20 mg/kg, route oral. The note with it: in vivo.
Series [7] is described as follows: Terminal elimination half life in BALB/c mouse at 20 mg/kg, po and measured up to 24 hrs by LC-MS/MS analysis. The class given is ADME, organism-based. The note with it: in vivo, read-out: LambdaZ (converted).
Series [8] in a line: AUC (infinity) in BALB/c mouse at 20 mg/kg, po and measured up to 24 hrs by LC-MS/MS analysis. The class given is ADME, organism-based. Also on record: dose 20 mg/kg, route oral, time infinity. The note with it: in vivo.
The subject of series [9] is RPMI-8226. As to the kind of experiment: Antitumour activity against human RPMI8226 cells xenografted in CB-17 SCID mouse assessed as relative tumour volume at 60 mg/kg/day, po measured twice a week for 21 days. The class given is functional.
Series [10] is described as follows: Toxicity in CB-17 SCID mouse xenografted with human RPMI8226 cells assessed as increase in body weight at 60 mg/kg/day, po and measured after day 18 (reference value: 13.4%). The settings on record: in vivo. The class given is organism-based.
For series [11], the system named is Raji. The series can be described thus: Antiproliferative activity against human Raji cells measured after 168 hrs by CellTiter96 Aqueous non-radioactive cell proliferation assay. The class given is functional, cell-based.
Series [12] relates to U-266. As to the kind of experiment: Antiproliferative activity against human U266 cells measured after 72 hrs by CellTiter96 Aqueous non-radioactive cell proliferation assay. The class given is functional, cell-based. The settings on record: U-266, 72 h.
Series [13] relates to MM1.S. As to the kind of experiment: Antiproliferative activity against human MM1S cells measured after 168 hrs by CellTiter96 Aqueous non-radioactive cell proliferation assay. The class given is functional, cell-based.
Series [14] in a line: Oral bioavailability in BALB/c mouse at 20 mg/kg and measured up to 24 hrs by LC-MS/MS analysis. The note with it: in vivo. The class given is ADME, organism-based.
The subject of series [15] is RPMI-8226. As to the kind of experiment: Antitumour activity against human RPMI8226 cells xenografted in CB-17 SCID mouse assessed as tumour volume at 60 mg/kg/day, po measured after day 18 (reference value: 153 to 154 mm3). The class given is functional.
Series [16] in a line: AUC (infinity) in BALB/c mouse at 5 mg/kg, iv and measured up to 24 hrs by LC-MS/MS analysis. The class given is ADME, organism-based. Further details: dose 5 mg/kg, route intravenous, time infinity. The note with it: in vivo.
Series [17] in a line: Clearance in BALB/c mouse at 5 mg/kg, iv and measured up to 24 hrs by LC-MS/MS analysis. The class given is ADME, organism-based. The note with it: in vivo.
Series [18] can be described thus: Antiproliferative activity against human Mino cells measured after 72 hrs by CellTiter96 Aqueous non-radioactive cell proliferation assay. The class given is functional, cell-based.
Series [19] relates to RPMI-8226. The series can be described thus: Antitumour activity against human RPMI8226 cells xenografted in CB-17 SCID mouse assessed as inhibition of tumour growth at 60 mg/kg/day, po measured twice a week for 21 days relative to control. The class given is functional. Also on record: scale not given: the % may be the effect or the level left.
The nature of series [20]: MRT (infinity) in BALB/c mouse at 5 mg/kg, iv and measured up to 24 hrs by LC-MS/MS analysis. The class given is ADME, organism-based. The note with it: in vivo.
The subject of series [21] is Kasumi 1. The series can be described thus: Antiproliferative activity against human Kasumi-1 cells measured after 168 hrs by CellTiter96 Aqueous non-radioactive cell proliferation assay. The class given is functional, cell-based. The settings on record: Kasumi 1, 168 h.
For series [22], the system named is MV4-11. The series can be described thus: Antiproliferative activity against human MV411 cells measured after 168 hrs by CellTiter96 Aqueous non-radioactive cell proliferation assay. The class given is functional, cell-based. The settings on record: MV4-11, 168 h.
Series [23] concerns RPMI-8226. As to the kind of experiment: Antiproliferative activity against human RPMI8226 cells measured after 72 hrs by CellTiter96 Aqueous non-radioactive cell proliferation assay. The class given is functional, cell-based. The settings on record: RPMI-8226, 72 h.
A short description of series [24]: Volume of distribution at steady state in BALB/c mouse at 5 mg/kg, iv and measured up to 24 hrs by LC-MS/MS analysis. The class given is ADME, organism-based. The note with it: in vivo, read-out: Vdss.
In series [25] the test system is Z-138. As to the kind of experiment: Antiproliferative activity against human Z138 cells measured after 72 hrs by CellTiter96 Aqueous non-radioactive cell proliferation assay. The class given is functional, cell-based. The settings on record: Z-138, 72 h.
In series [26] the test system is JeKo-1. The series can be described thus: Antiproliferative activity against human JeKo1 cells measured after 72 hrs by CellTiter96 Aqueous non-radioactive cell proliferation assay. The class given is functional, cell-based. The note with it: JeKo-1, 72 h.
Series [27] relates to THP-1. The series can be described thus: Antiproliferative activity against human THP1 cells measured after 168 hrs by CellTiter96 Aqueous non-radioactive cell proliferation assay. The class given is functional, cell-based. The settings on record: THP-1, 168 h.

The IC50 is the point on the concentration scale where inhibition reaches its midpoint. The Tmax is the time at which the peak concentration occurs. As usually defined, the Cmax is the highest concentration seen after dosing. As usually defined, the AUC(0-inf) is the area under the concentration-time curve extrapolated to infinity. Broadly, the bioavailability is the share of a dose that reaches the circulation, judged against a reference dose that is usually intravenous. Usually clearance stands for the volume of plasma or blood freed of the substance per unit of time. What is called MRT inf is a mean duration of stay, worked out from the concentration-time curve. With `O=C1CCC(N2Cc3c(SCc4ccc(Cl)cc4)cccc3C2=O)C(=O)N1` (stereo not given), the Activity in series [1] is on record as 22.4 g; in series [5], “Non-Toxic”; in series [10], 9.8%; in series [15] it was 1022 mm3; in series [19], 52.31%. For the same molecule, the values for the half-life in [2] and in series [7] were 113 min and 107 min, respectively. Moreover, the IC50 in series [3] was above 20000 nM; in series [11], above 20000 nM; in series [12] it was above 20000 nM; in [13] it was 1.1 nM; in [18] it was 2.3 nM; in series [21], above 20000 nM. In addition, the IC50 in series [22] was above 20000 nM; in series [23] it was 5.5 nM; in series [25], above 20000 nM; in [26], above 20000 nM; in series [27], above 20000 nM. Moreover, the Tmax in series [4] turned out to be 49.8 min. The highest level in series [6] (Cmax) was 283 ng/mL. Besides, the AUC(0-inf) in series [8] is 755 ng·h/mL; in series [16] it was 428 ng·h/mL. In addition, the “fold change (FC)” value in [9] is 6.62. The molecule further came in with a bioavailability in series [14] of 39.2%. Besides, in series [17], the clearance was determined as 196 mL/min/kg. This molecule displayed an MRT inf in [20] of 56.4 min. Further, the Vd in [24] is 11.1 L/kg.
As for `O=C1CC[C@H](N2Cc3c(OCc4ccc(CN5CCOCC5)cc4)cccc3C2=O)C(=O)N1` [IBERDOMIDE], the Activity in [1] was 22.1 g; in series [5], “Non-Toxic”; in [15] it was 517 mm3; in series [19], 27.07%. For the same molecule, the half-life in series [2] was 58.2 min; in series [7] it was 54 min. In addition, in [4], the Tmax came out at 8.4 min. In addition, the maximum concentration (Cmax) in series [6] was 2060 ng/mL. Further, the values for the AUC(0-inf) in [8] and in series [16] were 1810 ng·h/mL and 1940 ng·h/mL, respectively. In series [9], the “fold change (FC)” value is 3.42. In addition, the IC50 was 13 nM in series [13], 112 nM in [18] and above 20000 nM in series [22]. The bioavailability in series [14] turned out to be 22.8%. Further, in series [17], the clearance came to 43.5 mL/min/kg. For the same molecule, the MRT inf in series [20] stood at 43.8 min. Also, the Vd in series [24] was 1.9 L/kg.
